Laboratory results as given in patent US8530461B2 (Boehringer Ingelheim International GmbH, priority 2011, dated 2013).

biological target: T1, human ACC2 (Homo sapiens, UniProt O00763); experiment: ACC2 assay, spectrophotometric 384 well assay (NADH-linked, coupled lactate dehydrogenase/pyruvate kinase); assay type: biochemical; conditions: ACC2 assay; human ACC2 construct lacking 128 N-terminal amino acids; 25° C., 340 nm, 15 minutes; read-out: IC50
T1 construct: made in house; host or cells: insect cells (baculoviral expression system)
T1 sequence (O00763 129-2458 limits assumed): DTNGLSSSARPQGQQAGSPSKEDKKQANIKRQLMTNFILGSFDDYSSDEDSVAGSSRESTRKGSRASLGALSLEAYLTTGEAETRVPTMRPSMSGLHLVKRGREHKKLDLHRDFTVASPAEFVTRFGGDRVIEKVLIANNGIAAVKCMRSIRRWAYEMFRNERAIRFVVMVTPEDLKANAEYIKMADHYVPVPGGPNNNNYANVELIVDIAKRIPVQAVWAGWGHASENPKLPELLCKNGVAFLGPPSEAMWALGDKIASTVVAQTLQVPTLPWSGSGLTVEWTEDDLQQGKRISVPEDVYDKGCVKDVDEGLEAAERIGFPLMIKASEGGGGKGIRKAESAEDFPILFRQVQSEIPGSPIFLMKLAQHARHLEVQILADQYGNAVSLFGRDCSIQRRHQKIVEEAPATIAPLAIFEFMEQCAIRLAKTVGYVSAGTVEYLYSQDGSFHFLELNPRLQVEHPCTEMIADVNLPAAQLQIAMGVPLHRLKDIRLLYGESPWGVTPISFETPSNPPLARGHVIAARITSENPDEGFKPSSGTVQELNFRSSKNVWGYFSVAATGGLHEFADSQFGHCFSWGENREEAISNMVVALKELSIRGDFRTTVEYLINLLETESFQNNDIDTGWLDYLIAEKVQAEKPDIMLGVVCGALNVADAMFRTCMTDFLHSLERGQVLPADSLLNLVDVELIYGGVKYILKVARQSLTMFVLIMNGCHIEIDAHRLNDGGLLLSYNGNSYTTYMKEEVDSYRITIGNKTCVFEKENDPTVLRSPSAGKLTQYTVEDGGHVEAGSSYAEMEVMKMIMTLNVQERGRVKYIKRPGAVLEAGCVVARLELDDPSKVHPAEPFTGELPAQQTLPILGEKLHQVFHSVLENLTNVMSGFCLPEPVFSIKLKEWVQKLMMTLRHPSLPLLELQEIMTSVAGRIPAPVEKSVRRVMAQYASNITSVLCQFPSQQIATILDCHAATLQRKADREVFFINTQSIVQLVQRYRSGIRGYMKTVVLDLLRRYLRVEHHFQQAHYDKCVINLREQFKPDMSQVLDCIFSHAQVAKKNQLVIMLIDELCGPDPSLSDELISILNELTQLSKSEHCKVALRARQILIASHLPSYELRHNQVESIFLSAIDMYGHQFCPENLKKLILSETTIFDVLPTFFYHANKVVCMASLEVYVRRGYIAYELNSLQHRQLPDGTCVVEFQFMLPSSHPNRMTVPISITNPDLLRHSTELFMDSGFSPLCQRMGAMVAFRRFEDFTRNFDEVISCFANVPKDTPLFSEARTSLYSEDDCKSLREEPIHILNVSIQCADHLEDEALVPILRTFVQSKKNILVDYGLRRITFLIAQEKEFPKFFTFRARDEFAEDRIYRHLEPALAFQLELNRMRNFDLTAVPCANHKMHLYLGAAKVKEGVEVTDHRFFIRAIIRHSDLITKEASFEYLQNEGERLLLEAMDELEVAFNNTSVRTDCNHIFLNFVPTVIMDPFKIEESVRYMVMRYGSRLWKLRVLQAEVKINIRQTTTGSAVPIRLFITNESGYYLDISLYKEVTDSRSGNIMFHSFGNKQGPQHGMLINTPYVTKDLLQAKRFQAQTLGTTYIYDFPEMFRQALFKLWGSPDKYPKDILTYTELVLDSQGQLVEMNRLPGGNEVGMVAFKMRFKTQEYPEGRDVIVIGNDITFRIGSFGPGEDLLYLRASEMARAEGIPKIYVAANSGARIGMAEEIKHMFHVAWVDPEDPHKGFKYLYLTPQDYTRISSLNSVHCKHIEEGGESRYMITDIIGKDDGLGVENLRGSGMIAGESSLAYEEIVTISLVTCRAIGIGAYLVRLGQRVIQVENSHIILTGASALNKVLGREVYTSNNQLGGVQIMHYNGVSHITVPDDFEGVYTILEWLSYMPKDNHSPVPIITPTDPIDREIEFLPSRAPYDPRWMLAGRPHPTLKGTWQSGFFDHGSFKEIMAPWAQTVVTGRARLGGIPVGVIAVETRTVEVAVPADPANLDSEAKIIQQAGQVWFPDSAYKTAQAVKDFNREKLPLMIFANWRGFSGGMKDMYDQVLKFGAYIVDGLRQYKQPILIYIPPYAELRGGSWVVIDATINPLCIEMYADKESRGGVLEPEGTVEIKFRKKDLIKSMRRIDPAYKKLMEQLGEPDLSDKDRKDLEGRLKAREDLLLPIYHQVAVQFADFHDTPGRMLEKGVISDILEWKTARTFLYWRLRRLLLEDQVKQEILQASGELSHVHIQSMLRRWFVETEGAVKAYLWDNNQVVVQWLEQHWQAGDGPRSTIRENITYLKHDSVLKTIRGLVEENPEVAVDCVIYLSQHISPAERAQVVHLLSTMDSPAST
Procedure: Spectrophotometric 384 Well Assay
Malonyl CoA formation by acetyl CoA carboxylases is stoichometrically linked to the consumption of ATP. ACC2 activity is measured in a NADH-linked kinetic method measuring ADP generated during the ACC reaction using a coupled lactate dehydrogenase/pyruvate kinase reaction.
For biological testing, a human ACC2 construct which lacks the 128 amino acids at the N-terminus for increased solubility (nt 385-6966 in Genbank entry AJ575592) is cloned. The protein is then expressed in insect cells using a baculoviral expression system. Protein purification is performed by anion exchange.
All compounds are dissolved in dimethyl sulfoxide (DMSO) to a concentration of 10 mM.
Assay reactions are then carried out in 384-well plates, with hACC2 in an appropriate dilution and at final assay concentrations (f.c.) of 100 mM Tris (pH 7.5), 10 mM trisodium citrate, 25 mM KHCO3, 10 mM MgCl2, 0.5 mg/ml BSA, 3.75 mM reduced L-glutathione, 15 U/ml lactate dehydrogenase, 0.5 mM phosphoenolpyruvate, 15 U/ml pyruvate kinase, compounds at different concentrations at final DMSO concentrations of 1%.
The enzymatic reaction is then started by addition of a mixture of NADH, acetyl Coenzyme A (both […].) and ATP (500 uM f.c.). The decrease of the optical density (slope S) is then determined at 25° C. at a wavelength of 340 nm over 15 minutes in a spectrophotometric reader.
Each assay microtiter plate contains wells with vehicle instead of compound as controls for the non-inhibited enzyme (100% CTL; ‘HIGH’) and wells without acetyl-CoA as controls for non-specific NADH degradation (0% CTL; ‘LOW’).
The slope S is used for calculation of % CTL=(S(compound)−S(‘LOW’))/(S(‘HIGH’)−S(‘LOW’))100. Compounds will give values between 100% CTL (no inhibition) and 0% CTL (complete inhibition).
For IC50 value determination, the sample slope in the presence of the test compound after subtraction of the low controls (S(compound)−S(‘LOW’)) are used.
An IC50 value is derived from the compound slopes at different dosages after subtraction of the low controls (S(compound)−S(‘LOW’)) by non-linear regression curve fitting (equation y=(A+((B−A)/(1+((C/x)^D))))).

| Compound | IC50 [µM] |
| --- | --- |
| CCOc1ccc(OC2CN(c3ccc([C@H](C)NC(=O)C(C)(C)C#N)cc3)C2)cc1 [Example 1.68] | 1.52 |
| CCOc1ccc(OC2CN(c3ccc([C@H](C)NC(=O)c4ccc(C)c(NC(C)=O)c4)cc3)C2)cc1 [Example 1.69] | 3.15 |
| CCOc1ccc(OC2CN(c3ccc([C@H](C)NC(=O)c4coc(NC(C)=O)n4)cc3)C2)cc1 [Example 1.72] | 1.19 |
| CCOc1ccc(OC2CN(c3ccc([C@H](C)NC(=O)c4sc(C)nc4C)cc3)C2)cc1 [Example 1.76] | 1 |
| C#CCCC(=O)N[C@@H](C)c1ccc(N2CC(Oc3ccc(OCC)cc3)C2)cc1 [Example 1.77] | 1.04 |
| CCOc1ccc(OC2CN(c3ccc([C@H](C)NC(=O)C(C)O)cc3)C2)cc1 (stereo partly shown) [Example 1.79] | 1.72 |
| CCOc1ccc(OC2CN(c3ccc([C@H](C)NC(=O)CCC#N)cc3)C2)cc1 [Example 1.80] | 1.06 |
| CCOc1ccc(OC2CN(c3ccc([C@H](C)NC(=O)Cc4ccccn4)cc3)C2)cc1 [Example 1.81] | 2.33 |
| CCOc1ccc(OC2CN(c3ccc([C@H](C)NC(=O)c4cc(C)oc4C)cc3)C2)cc1 [Example 2.1, (S)-2,5-Dimethyl-furan-3-carboxylic acid (1-{4-[3-(4-ethoxy-phenoxy)-azetidin-1-yl]-phenyl}-ethyl)-amide] | 1.53 |
| CCOc1ccc(OC2CN(c3ccc([C@H](C)NC(=O)Nc4ccncn4)cc3)C2)cc1 [Example 4.1, (S)-1-(1-{4-[3-(4-Ethoxy-phenoxy)-azetidin-1-yl]-phenyl}-ethyl)-3-pyrimidin-4-yl-urea] | 3.41 |
| CCNC(=O)N[C@@H](C)c1ccc(N2CC(Oc3ccc(OCC)cc3)C2)cc1 [Example 4.2] | 1.54 |
| CCOc1ccc(OC2CN(c3ccc([C@H](C)NC(=O)NC)cc3)C2)cc1 [Example 4.3] | 1 |
| CCOc1ccc(OC2CN(c3ccc([C@H](C)NC(=O)N4CC(O)C4)cc3)C2)cc1 [Example 4.4] | 1.61 |
| CCOc1ccc(OC2CN(c3ccc([C@H](C)NC(=O)N(C)CC4CC4)cc3)C2)cc1 [Example 4.5] | 5.57 |
| CCOc1ccc(OC2CN(c3ccc([C@H](C)NC(=O)Nc4cc[nH]n4)cc3)C2)cc1 [Example 4.7] | 2.31 |
| CCOc1ccc(OC2CN(c3ccc([C@H](C)NC(=O)N(C)CCOC)cc3)C2)cc1 [Example 4.8] | 1.39 |
| CCOc1ccc(OC2CN(c3ccc([C@H](C)NC(=O)N(C)C(C)C)cc3)C2)cc1 [Example 4.10] | 3.1 |
| CCOc1ccc(OC2CN(c3ccc([C@H](C)NC(=O)N4CCC4)cc3)C2)cc1 [Example 4.11] | 2.37 |
| CCOc1ccc(OC2CN(c3ccc([C@H](C)NC(=O)N(CC#N)C4CC4)cc3)C2)cc1 [Example 4.12] | 1.61 |
| CCOc1ccc(OC2CN(c3ccc([C@H](C)NC(=O)N(C)C4CC4)cc3)C2)cc1 [Example 4.14] | 3.45 |
| C[C@H](NC(=O)N(C)C1CC1)c1ccc(N2CC(Oc3ccc(OCC4CC4)cc3)C2)cc1 [Example 4.17] | 1.13 |
| CCOc1ccc(OC2CN(c3ccc([C@H](C)NC(=O)C4CC4)cc3)C2)c(F)c1 [Example 7.2, (S)-Cyclopropanecarboxylic acid (1-{4-[3-(4-ethoxy-2-fluoro-phenoxy)-azetidin-1-yl]-phenyl}-ethyl)-amide] | 2.42 |

Compounds with a lower IC50, results first:

| IC50 [µM] | Compound |
| --- | --- |
| 0.71 | CCOc1ccc(OC2CN(c3ccc([C@H](C)NC(=O)C(C)CC)cc3)C2)cc1 (stereo partly shown) [Example 1.71] |
| 0.16 | CCOc1ccc(OC2CN(c3ccc([C@H](C)NC(=O)C(F)F)cc3)C2)cc1 [Example 1.73] |
| 0.41 | CCOc1ccc(OC2CN(c3ccc([C@H](C)NC(=O)C4(C(F)(F)F)CC4)cc3)C2)cc1 [Example 1.74] |
| 0.41 | CCOc1ccc(OC2CN(c3ccc([C@H](C)NC(=O)CC(F)(F)F)cc3)C2)cc1 [Example 1.75] |
| 0.36 | CCOc1ccc(OC2CN(c3ccc([C@H](C)NC(=O)c4cncc(NC(C)=O)c4)cc3)C2)cc1 [Example 1.78] |
| 0.27 | CCOc1ccc(OC2CN(c3ccc([C@H](C)NC(=O)C(C)C#N)cc3)C2)cc1 (stereo partly shown) [Example 1.82] |
| 0.59 | CCOc1ccc(OC2CN(c3ccc([C@H](C)NC(=O)CC#N)cc3)C2)cc1 [Example 1.83] |
| 0.73 | CCOc1ccc(OC2CN(c3ccc([C@H](C)NC(=O)c4cnon4)cc3)C2)cc1 [Example 1.84] |
| 0.23 | CCOc1ccc(OC2CN(c3ccc([C@H](C)NC(=O)c4cncs4)cc3)C2)cc1 [Example 1.85] |
| 0.05 | C[C@H](NC(=O)c1cn[nH]c1)c1ccc(N2CC(Oc3ccc(OCC4CC4)cc3)C2)cc1 [Example 1.86] |
| 0.2 | C[C@H](NC(=O)CC#N)c1ccc(N2CC(Oc3ccc(OCC4CC4)cc3)C2)cc1 [Example 1.87] |
| 0.1 | CCC(=O)N[C@@H](C)c1ccc(N2CC(Oc3ccc(OCC4CC4)cc3)C2)cc1 [Example 1.88] |
| 0.12 | C[C@H](NC(=O)C1(C)CC1)c1ccc(N2CC(Oc3ccc(OCC4CC4)cc3)C2)cc1 [Example 1.89] |
| 0.09 | C[C@H](NC(=O)c1cncs1)c1ccc(N2CC(Oc3ccc(OCC4CC4)cc3)C2)cc1 [Example 1.90] |
| 0.79 | CCOc1ccc(OC2CN(c3ccc([C@H](C)NC(=O)c4ccnn4C)cc3)C2)cc1 [Example 2.2] |
| 0.82 | CCOc1ccc(OC2CN(c3ccc([C@H](C)NC(=O)c4ccoc4C)cc3)C2)cc1 [Example 2.3] |
| 0.29 | CCOc1ccc(OC2CN(c3ccc([C@H](C)NC(=O)c4ccno4)cc3)C2)cc1 [Example 2.4] |
| 0.07 | C[C@H](NC(=O)C1CC1)c1ccc(N2CC(Oc3ccc(OCC4CC4)cc3)C2)cc1 [Example 2.7] |
| 0.06 | CCOc1ccc(OC2CN(c3ccc([C@H](C)NC(=O)C(F)(F)F)cc3)C2)cc1 [Example 3.1, (S)—N-(1-{4-[3-(4-Ethoxy-phenoxy)-azetidin-1-yl]-phenyl}-ethyl)-2,2,2-trifluoro-acetamide] |
| 0.86 | CCOc1ccc(OC2CN(c3ccc([C@H](C)NC(=O)N(C)CC)cc3)C2)cc1 [Example 4.9] |
| 0.37 | CCOc1ccc(OC2CN(c3ccc([C@H](C)NC(=O)N(C)c4cccnc4)cc3)C2)cc1 [Example 4.13] |
| 0.07 | C[C@H](NC(=O)N(C)C)c1ccc(N2CC(Oc3ccc(OCC4CC4)cc3)C2)cc1 [Example 4.15] |
| 0.28 | CCNC(=O)N[C@@H](C)c1ccc(N2CC(Oc3ccc(OCC4CC4)cc3)C2)cc1 [Example 4.16] |
| 0.34 | CCOc1ccc(OC2CN(c3ccc([C@H](C)NC4=CC(=O)OC4)cc3)C2)cc1 [Example 5.1, (S)-4-(1-{4-[3-(4-Ethoxy-phenoxy)-azetidin-1-yl]-phenyl}-ethylamino)-5H-furan-2-one] |
| 0.26 | CC(=O)N[C@@H](C)c1ccc(N2CC(Oc3ccc(C(C)(C)C)cc3)C2)cc1 [Example 6.1, (S)—N-(1-{4-[3-(4-tert-Butyl-phenoxy)-azetidin-1-yl]-phenyl}-ethyl)-acetamide] |
| 0.12 | CCOc1ccc(OC2CN(c3ccc([C@H](C)NC(C)=O)cc3)C2)c(F)c1 [Example 7.1, (S)—N-(1-{4-[3-(4-Ethoxy-2-fluoro-phenoxy)-azetidin-1-yl]-phenyl}-ethyl)-acetamide] |
| 0.25 | CCOc1ccc(OC2CN(c3ccc([C@H](C)NC(=O)N(C)C)cc3)C2)c(F)c1 [Example 8.1, (S)-3-(1-{4-[3-(4-Ethoxy-2-fluoro-phenoxy)-azetidin-1-yl]-phenyl}-ethyl)-1,1-dimethyl-urea] |
